Results published in patent US20210137886A1, “INHIBITORS OF METALLO-BETA-LACTAMASES” (Oxford University Innovation Limited, priority 2017, published 2021).

What was measured:
[1] = tested on: Klebsiella pneumoniae IMP-4; assay: Meropenem MIC, CLSI broth or agar microdilution, strain entry 1; type: cell-based
E. coli IMP-4 = assay: Meropenem MIC, CLSI broth or agar microdilution, strain entry 2; type: cell-based
E. coli VIM-1 = assay: Meropenem MIC, CLSI broth or agar microdilution, strain entry 3; type: cell-based; settings: strain entry 3, E. coli VIM-1
Text: (§1) In each case DMSO was used to dissolve inhibitors.

[2] = tested on: Klebsiella pneumoniae VIM-1; assay: Meropenem MIC, CLSI broth or agar microdilution, strain entry 4; type: cell-based
[3] = tested on: Pseudomonas aeruginosa VIM-2; assay: Meropenem MIC, CLSI broth or agar microdilution, strain entry 5; type: cell-based; settings: strain entry 5, Pseudomonas aeruginosa VIM-2
Text: as §1

[4] = tested on: Klebsiella pneumoniae NDM-1; assay: Meropenem MIC, CLSI broth or agar microdilution, strain entry 6; type: cell-based; settings: strain entry 6, Klebsiella pneumoniae NDM-1
Text: as §1

[5] = tested on: Klebsiella pneumoniae NDM-1 + DHA + CTX − M-15; assay: Meropenem MIC, CLSI broth or agar microdilution, strain entry 7; type: cell-based
[6] = molecular target: VIM-2 (Veronese metallo-β-lactamase-2) (Escherichia coli, UniProt Q5U7L7); assay: Metallo-β-lactamase enzyme inhibition, standard assay protocol
IMP-1 (Imipenemase-1) = IMP-1 (Imipenemase-1) (Serratia marcescens, UniProt P52699); assay: as above
IMP-1 (Imipenemase-1), sequence (P52699 19-246, looked up, species assumed): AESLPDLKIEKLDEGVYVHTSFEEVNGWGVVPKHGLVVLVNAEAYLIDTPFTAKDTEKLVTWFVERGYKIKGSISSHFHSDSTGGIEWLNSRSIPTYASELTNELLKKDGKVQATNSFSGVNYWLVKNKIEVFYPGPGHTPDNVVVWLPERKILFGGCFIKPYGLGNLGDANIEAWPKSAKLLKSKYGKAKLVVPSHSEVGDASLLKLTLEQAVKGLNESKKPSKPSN

[7] = molecular target: NDM-1 (New Delhi metallo-β-lactamase-1) (Klebsiella pneumoniae, UniProt C7C422); assay: as above
NDM-1 (New Delhi metallo-β-lactamase-1), sequence (C7C422 29-270, looked up, species assumed): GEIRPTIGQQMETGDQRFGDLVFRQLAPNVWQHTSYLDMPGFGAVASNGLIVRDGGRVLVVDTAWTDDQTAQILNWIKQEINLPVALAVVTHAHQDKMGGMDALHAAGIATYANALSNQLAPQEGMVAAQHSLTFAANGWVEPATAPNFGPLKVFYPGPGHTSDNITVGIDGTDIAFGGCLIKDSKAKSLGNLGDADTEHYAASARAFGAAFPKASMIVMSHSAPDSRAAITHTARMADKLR

[8] = molecular target: VIM-1 (Veronese metallo-β-lactamase-1) (Pseudomonas aeruginosa, UniProt A0A0F7KYQ8); assay: as above

Change in MIC value of meropenem ([1]; 2 mg/L inhibitor) [log2 difference]	Change in MIC value of meropenem ([1]; 4 mg/L inhibitor) [log2 difference]	Change in MIC value of meropenem ([1]; 8 mg/L inhibitor) [log2 difference]	Change in MIC value of meropenem (E. coli IMP-4; 2 mg/L inhibitor) [log2 difference]	Change in MIC value of meropenem (E. coli IMP-4; 4 mg/L inhibitor) [log2 difference]	Change in MIC value of meropenem (E. coli IMP-4; 8 mg/L inhibitor) [log2 difference]	Change in MIC value of meropenem (E. coli VIM-1; 2 mg/L inhibitor) [log2 difference]	Change in MIC value of meropenem (E. coli VIM-1; 4 mg/L inhibitor) [log2 difference]	Change in MIC value of meropenem (E. coli VIM-1; 8 mg/L inhibitor) [log2 difference]	Change in MIC value of meropenem ([2]; 2 mg/L inhibitor) [log2 difference]	Change in MIC value of meropenem ([2]; 4 mg/L inhibitor) [log2 difference]	Change in MIC value of meropenem ([2]; 8 mg/L inhibitor) [log2 difference]	Change in MIC value of meropenem ([3]; 2 mg/L inhibitor) [log2 difference]	Change in MIC value of meropenem ([3]; 4 mg/L inhibitor) [log2 difference]	Change in MIC value of meropenem ([3]; 8 mg/L inhibitor) [log2 difference]	Change in MIC value of meropenem ([4]; 2 mg/L inhibitor) [log2 difference]	Change in MIC value of meropenem ([4]; 4 mg/L inhibitor) [log2 difference]	Change in MIC value of meropenem ([4]; 8 mg/L inhibitor) [log2 difference]	Change in MIC value of meropenem ([5]; 2 mg/L inhibitor) [log2 difference]	Change in MIC value of meropenem ([5]; 4 mg/L inhibitor) [log2 difference]	Structure (SMILES)	also measured
−1	−1	−1	−1	−1	−1	−1	−1	−1	−1	−1	−1	0	0	0	−1	−1	−2	−2	−2	NS(=O)(=O)c1ccc(-c2c(C(=O)O)[nH]c3c(Br)csc23)cc1 [Example 14, 3-bromo-6-(4-sulfamoylphenyl)-4H-thieno-[3,2-b]pyrrole-5-carboxylic acid]	Change in MIC value of meropenem ([5]; 8 mg/L inhibitor): −3 log2 difference; IC50 [6]: 158 nM; IC50 (IMP-1 (Imipenemase-1)): 1260 nM; IC50 [7]: 63.1 nM; IC50 [8]: 3160 nM
−2	−2	−2	−2	−2	−3	−1	−1	−1	−2	−2	−2	0	0	0	−1	−1	−2	−1	−2	CC(C)c1csc2c(-c3ccc(F)cc3)c(C(=O)O)[nH]c12 [Example 12, 3-isopropyl-6-(4-fluorophenyl)-4H-thieno-[3,2-b]pyrrole-5-carboxylic acid]	Change in MIC value of meropenem ([5]; 8 mg/L inhibitor): −3 log2 difference; IC50 [6]: 39.8 nM; IC50 (IMP-1 (Imipenemase-1)): 50.1 nM; IC50 [7]: 50.1 nM; IC50 [8]: 631 nM
−2	−2	−2	−2	−2	−2	−1	−1	−1	−2	−2	−2	0	0	0	−1	−1	−2	−2	−2	O=C(O)c1[nH]c2c(C3CC3)csc2c1-c1ccc(F)cc1 [Example 13, 3-cyclopropyl-6-(4-fluorophenyl)-4H-thieno-[3,2-b]pyrrole-5-carboxylic acid]	Change in MIC value of meropenem ([5]; 8 mg/L inhibitor): −2 log2 difference; IC50 [6]: 79.4 nM; IC50 (IMP-1 (Imipenemase-1)): 398 nM; IC50 [7]: 50.1 nM; IC50 [8]: 1580 nM
−2	−2	−2	−2	−2	−3	−1	−1	−1	−2	−2	−2	0	0	0	−1	−1	−2	−1	−2	O=C(O)c1[nH]c2c(C3CC3)csc2c1-c1cc(Cl)cc(Cl)c1 [Example 2, 3-cyclopropyl-6-(3,5-dichlorophenyl)-4H-thieno[3,2-b]pyrrole-5-carboxylic acid]	Change in MIC value of meropenem ([5]; 8 mg/L inhibitor): −3 log2 difference; IC50 [6]: 5.01 nM; IC50 (IMP-1 (Imipenemase-1)): 79.4 nM; IC50 [7]: 15.8 nM; IC50 [8]: 126 nM
−2	−2	−2	−2	−2	−2	−1	0	−1	−1	−1	0	0	0	0	−1	−1	−1	−1	−1	C=C(C)c1csc2c(-c3ccc(F)cc3)c(C(=O)O)[nH]c12 [Example 6, 3-isopropenyl-6-(4-fluorophenyl)-4H-thieno-[3,2-b]pyrrole-5-carboxylic acid]	Change in MIC value of meropenem ([5]; 8 mg/L inhibitor): −1 log2 difference; IC50 [6]: 126 nM; IC50 (IMP-1 (Imipenemase-1)): 501 nM; IC50 [7]: 39.8 nM; IC50 [8]: 631 nM
